The IC50 is the point on the concentration scale where inhibition reaches its midpoint.

The results in this text go back to US7868006B2, “Heterocyclic substituted piperazines with CXCR3 antagonist activity” (Schering Corporation, priority 2005, dated 2011).

In the experiment the target is T1, human CXCR3 (N-delta 4) (Homo sapiens, UniProt P49682).
T1 construct: CD8 leader (N); Flag tag (N); expressed in transfected cells; host or cells: mouse pro-B Ba/F3 cells, stably transfected with pME18Sneo-hCXCR3 (N-delta 4); membrane preparation
T1 sequence (P49682 5-368 limits assumed): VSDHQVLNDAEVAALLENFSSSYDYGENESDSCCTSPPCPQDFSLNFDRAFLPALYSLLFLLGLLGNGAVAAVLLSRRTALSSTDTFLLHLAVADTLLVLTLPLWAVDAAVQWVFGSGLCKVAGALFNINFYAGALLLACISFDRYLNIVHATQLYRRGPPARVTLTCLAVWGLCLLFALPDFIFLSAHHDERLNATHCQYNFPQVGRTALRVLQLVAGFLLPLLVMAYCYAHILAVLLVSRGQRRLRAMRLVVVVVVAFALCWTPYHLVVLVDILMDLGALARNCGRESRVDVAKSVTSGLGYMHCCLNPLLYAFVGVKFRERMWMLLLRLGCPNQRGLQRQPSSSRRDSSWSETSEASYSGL
Briefly: Human CXCR3 (N-delta 4) Scintillation Proximity Assay (SPA), [125I] IP-10 binding. The note with it: IC50 rating; Ba/F3-hCXCR3 (N-delta 4) membranes, 25 pM [125I] IP-10; read-out: IC50. An excerpt: The inventive compounds can readily be evaluated to determine activity at The CXCR3 receptors by known methods, such as, for example, Development of Human CXCR3 (N-delta 4) Binding Assay.
Cloning and Expression of Human CXCR3 (N-delta 4):
The DNA encoding human CXCR3 was cloned by PCR using human genomic DNA (Promega, Madison, Wis.) as a template. The PCR primers were designed based on the published sequence of human orphan receptor GPR9 (1) with incorporated restriction sites, a Kozak consensus sequence, CD8 leader and Flag tag. The PCR product was subcloned into the mammalian expression vector pME18Sneo, a derivative of the SR-alpha expression vector (designated as pME18Sneo-hCXCR3 (N-delta 4).
IL-3-dependent mouse pro-B cells Ba/F3 were transfected by electroporation in 0.4 ml Dulbecco's PBS containing 4×10^6 cells with 20 μg of pME18Sneo-hCXCR3 (N-delta 4) plasmid DNA. Cells were pulsed at 400 Volts, 100 OHMs, 960 μFd. The transfected cells were under selection with 1 mg/ml G418 (Life Technologies, Gaithersburg, Md.). G418-resistant Ba/F3 clones were screened for CXCR3 expression by specific binding of [^125I] IP-10 (NEN Life Science Products, Boston, Mass.).
Preparation of Ba/F3-hCXCR3 (N-delta 4) Membranes:
Ba/F3 cells expressing human CXCR3 (N-delta 4) were pelleted and resuspended in the lysis buffer containing 10 mM HEPES, pH 7.5 and Complete® protease inhibitors (1 tablet per 100 ml) (Boehringer Mannheim, Indianapolis, Ind.) at a cell density of 20×10^6 cells per ml. After 5 minutes incubation on ice, cells were transferred to 4639 cell disruption bomb (Parr Instrument, Moline, Ill.) and applied with 1,500 psi of nitrogen for 30 minutes on ice. Large cellular debris was removed by centrifugation at 1,000×g. Cell membrane in the supernatant was sedimented at 100,000×g. The membrane was resuspended in the lysis buffer supplemented with 10% sucrose and stored at −80° C. Total protein concentration of the membrane was determined by BCA method from Pierce (Rockford, Ill.).
Human CXCR3 (N-delta 4) Scintillation Proximity Assay (SPA):
For each assay point, 2 μg of membrane was preincubated for 1 hr with 300 μg wheat germ agglutinin (WGA) coated SPA beads (Amersham, Arlington Heights, Ill.) in the binding buffer (50 mM HEPES, 1 mM CaCl2, 5 mM MgCl2, 125 mM NaCl, 0.002% NaN3, 1.0% BSA) at room temperature. The beads were spun down, washed once, resuspended in the binding buffer and transferred to a 96-well Isoplate (Wallac, Gaithersburg, Md.). 25 pM of [^125I] IP-10 with tested compounds in a series of titration were added to start the reaction. After 3 hr reaction at room temperature, the amount of [^125I] IP-10 bound to the SPA beads was determined with a Wallac 1450 Microbeta counter.
The Ki values for the various example compounds of the present invention are given in the afore-mentioned Table 1. From these values, it would be apparent to the skilled artisan that the compounds of the invention have excellent utility CXCR3 antagonists.
`CC[C@H]1CN(c2nc(N)c(-c3nnc(CNC(=O)C(F)(F)F)o3)nc2Cl)CCN1C1CCN(C(=O)c2ccc(Cl)nc2N)CC1` [Compound 46]: the IC50 was less than 25 nM.
Then `CC[C@H]1CN(c2nc(N)c(-c3nnc(CO)o3)nc2Cl)CCN1C1CCN([C@@H](C(=O)OC)c2ccc(Cl)cc2)CC1` [Compound 47], with less than 25 nM.
Then `CC[C@H]1CN(c2nc(N)c(-c3nnc(C)o3)nc2Cl)CCN1C1CCN(Cc2ccc(Cl)cc2C#N)CC1` [Compound 48], with less than 25 nM; and `CC[C@H]1CN(c2ncc(-c3nc[nH]n3)nc2C)CCN1C1CCN(C(=O)c2ccc(Cl)cc2)CC1` [Compound 49], with less than 25 nM; and `CC[C@H]1CN(c2nc(N)c(-c3nnco3)nc2Cl)CCN1C1CCN(Cc2ccc(Cl)cc2)CC1` [Compound 50], with less than 25 nM.
With `CC[C@H]1CN(c2ncc(-c3nnc(C)[nH]3)nc2Cl)CCN1C1CCN(C(=O)c2ccc(Cl)cc2)CC1` [Compound 51], the IC50 was less than 25 nM.
On to `CC[C@H]1CN(c2nc(N)c(-c3nnc(C4CC4)o3)nc2Cl)CCN1C1CCN(C(=O)c2ccc(Cl)nc2N)CC1` [Compound 52], for which the half-inhibitory concentration (IC50) is less than 25 nM.
Consider `CC[C@H]1CN(c2ncc(-c3nnc(C)[nH]3)nc2C)CCN1C1CCN(C(=O)c2ccc(Cl)cc2)CC1` [Compound 53], for which the IC50 is less than 25 nM.
As to `CC[C@H]1CN(c2nc(F)c(-c3nnc(C)o3)nc2Cl)CCN1C1CCN(C(=O)c2ccc(Cl)cc2)CC1` [Compound 54], the IC50 was less than 25 nM.
`CC[C@H]1CN(c2nc(N)c(-c3nnc(C)o3)nc2Cl)CCN1C1CCN(Cc2ccc(Cl)cc2-c2nnn[nH]2)CC1` [Compound 55]: the IC50 is less than 25 nM.
As for `CC[C@H]1CN(c2nc(N)c(-c3nnc(N)o3)nc2Cl)CCN1C1CCN(C(=O)c2ccc(C#N)cc2)CC1` [Compound 56], the figure is less than 25 nM; as for `CC[C@H]1CN(c2nc(N)c(-c3nnc(C)o3)nc2Cl)CCN1C1CCN(C(=O)c2ccc(Cl)nc2)CC1` [Compound 57], less than 25 nM.
As for `CC[C@H]1CN(c2nc(N)c(-c3nnc(C)o3)nc2Cl)CCN1C1CCN(Cc2ccc(Cl)cc2-c2nnn(C)n2)CC1` [Compound 58], the figure is less than 25 nM; as for `CC[C@H]1CN(c2nc(N)c(-c3nnc(C(F)(F)F)o3)nc2Cl)CCN1C1CCN(Cc2ccc(Cl)cc2)CC1` [Compound 59], less than 25 nM.
As for `CCO/C=N\c1nc(N2CCN(C3CCN(Cc4ccc(Cl)cc4)CC3)[C@@H](CC)C2)c(Cl)nc1-c1nnco1` [Compound 60], the figure is less than 25 nM.
As for `CC[C@H]1CN(c2nc(N)c(-c3nnc(C)o3)nc2Cl)CCN1C1CCN([C@@H](C(=O)OC)c2ccc(Cl)cc2)CC1` [Compound 61], the IC50 was less than 25 nM.
In the case of `CC[C@H]1CN(c2nc(N)c(-c3nnc(C)o3)nc2Cl)CCN1C1CCN([C@H](CO)c2ccc(Cl)cc2)CC1` [Compound 62], the IC50 is less than 25 nM.
Then `CC[C@H]1CN(c2ncc(-c3nnc(C)o3)nc2C)CCN1C1CCN(C(=O)c2ccc(F)c(F)c2)CC1` [Compound 63], with less than 25 nM.
As for `CC[C@H]1CN(c2ncc(-c3nnc(C)o3)nc2C)CCN1C1CCN(C(=O)c2ccc(C#N)cc2)CC1` [Compound 64], the figure is less than 25 nM; as for `CC[C@H]1CN(c2ncc(-c3nnc(C)o3)nc2C)CCN1C1CCN(C(=O)c2ccc(OC(F)(F)F)cc2)CC1` [Compound 65], less than 25 nM.
As for `CC[C@H]1CN(c2ncc(-c3nnc(N)[nH]3)nc2Cl)CCN1C1CCN(C(=O)c2ccc(Cl)cc2)CC1` [Compound 66], the figure is less than 25 nM; as for `CC[C@H]1CN(c2nc(N)c(-c3nnc(C)o3)nc2Cl)CCN1C1CCN(C(=O)c2ccc(Cl)cc2O)CC1` [Compound 67], less than 25 nM; as for `CC[C@H]1CN(c2nc(N)c(-c3nnc(N)[nH]3)nc2Cl)CCN1C1CCN(C(=O)c2ccc(Cl)cc2)CC1` [Compound 68], less than 25 nM.
For the compound `CC[C@H]1CN(c2nc(N)c(-c3nnc(CO)o3)nc2Cl)CCN1C1CCN([C@H](CO)c2ccc(Cl)cc2)CC1` [Compound 69], the IC50 is less than 25 nM.
As for `CC[C@H]1CN(c2nc(N)c(-c3nnc(C(N)=O)o3)nc2Cl)CCN1C1CCN(C(=O)c2ccc(Cl)cc2)CC1` [Compound 70], the figure is less than 25 nM.
Then `CC[C@H]1CN(c2nc(N)c(-c3nnc(N(C)C)o3)nc2Cl)CCN1C1CCN(C(=O)c2ccc(Cl)nc2N)CC1` [Compound 71], with less than 25 nM; and `CC[C@H]1CN(c2ncc(-c3nnc(N)o3)nc2C)CCN1C1CCN(C(=O)c2ccc(C(F)(F)F)cc2)CC1` [Compound 72], with less than 25 nM; and `CC[C@H]1CN(c2nc(N)c(-c3nnc(C(=O)NC4CC4)o3)nc2Cl)CCN1C1CCN(C(=O)c2ccc(Cl)nc2N)CC1` [Compound 73], with 25 to 100 nM.
As to `CC[C@H]1CN(c2nc(N)c(-c3nnc(C)o3)nc2Cl)CCN1C1CCN(C(=O)c2ccc(Cl)cc2NC(=O)C(F)(F)F)CC1` [Compound 74], the IC50 lay within 25 to 100 nM.
As for `CC[C@H]1CN(c2nc(N)c(-c3nnc(NCC(N)=O)o3)nc2Cl)CCN1C1CCN(C(=O)c2ccc(Cl)nc2N)CC1` [Compound 75], the figure is 25 to 100 nM; as for `CC[C@H]1CN(c2nc(N)c(-c3nnc(N)o3)nc2Cl)CCN1C1CCN(C(=O)c2ccc(OC(F)(F)F)cc2)CC1` [Compound 76], 25 to 100 nM; as for `CC[C@H]1CN(c2nc(N)c(-c3nnc(C(=O)NCC(F)(F)F)o3)nc2Cl)CCN1C1CCN(C(=O)c2ccc(Cl)cc2)CC1` [Compound 77], 25 to 100 nM.
For `CC[C@H]1CN(c2nc(N)c(-c3nnc(C(C)(C)O)o3)nc2Cl)CCN1C1CCN(C(=O)c2ccc(Cl)cc2)CC1` [Compound 78], the IC50 fell in the range of 25 to 100 nM.
As to `CC[C@H]1CN(c2nc(N)c(-c3nnc(OC)o3)nc2Cl)CCN1C1CCN(C(=O)c2ccc(Cl)nc2N)CC1` [Compound 79], the IC50 was greater than 100 nM.
Regarding `CC[C@H]1CN(c2nc(N)c(-c3nnc(C(F)(F)F)o3)nc2Cl)CCN1C1CCN(C(=O)c2ccc(Cl)cc2)CC1` [Compound 80], the IC50 is greater than 100 nM.
In the case of `CCOC(=O)c1nnc(-c2nc(Cl)c(N3CCN(C4CCN(C(=O)c5ccc(Cl)nc5N)CC4)[C@@H](CC)C3)nc2N)o1` [Compound 81], the IC50 was greater than 100 nM.
Then `CC[C@H]1CN(c2nc(N)c(-c3nnc(C)o3)nc2Cl)CCN1C1CCN(C(=O)c2cc(F)c(N)nc2Cl)CC1` [Compound 82], with greater than 100 nM; and `CC[C@H]1CN(c2nc(N)c(-c3nnc(C)o3)nc2Cl)CCN1C1CCN([C@H](C(=O)OC)c2ccc(Cl)cc2)CC1` [Compound 83], with greater than 100 nM; and `CC[C@H]1CN(c2nc(N)c(-c3nc(N)no3)nc2Cl)CCN1C1CCN(C(=O)c2ccc(Cl)nc2N)CC1` [Compound 84], with greater than 100 nM.
Then `CC[C@H]1CN(c2nc(N)c(-c3nnc(CO)o3)nc2Cl)CCN1C1CCN([C@H](C(=O)OC)c2ccc(Cl)cc2)CC1` [Compound 85], with greater than 100 nM; and `CC[C@H]1CN(c2nc(N)c(-c3n[nH]c(=S)n3C)nc2Cl)CCN1C1CCN(Cc2ccc(Cl)cc2)CC1` [Compound 86], with greater than 100 nM; and `CC[C@H]1CN(c2nc(N)c(-c3n[nH]c(=O)o3)nc2Cl)CCN1C1CCN(Cc2ccc(Cl)cc2)CC1` [Compound 87], with greater than 100 nM.
Then `CC[C@H]1CN(c2nc(N)c(-c3nnc(C(=O)NC4CC4)o3)nc2Cl)CCN1C1CCN(C(=O)c2ccc(Cl)cc2)CC1` [Compound 88], with greater than 100 nM.
